≈ marks a conversion by molar mass, not a printed value. Where two headings read alike, the source gives them in different places.
Columns and labels:
Format in all cases: in vivo
[1] = tested on: late third instar of Spodoptera litura; experiment: Antifeedant activity, painted leaf disks of Ricinus cummunis; set-up: key to A.I (Anti-feedent index): percent protection of treated vs untreated leaf disks; conditions: for Concentration required for 50% leaf protection EC50 ±S.E: oral feeding, leaf disk
Description: (§1) The average mortality and growth inhibition data of experiments was subjected to IBM AT 386 computer analysis at our laboratory for calculating LC50, LD50, EC50, ED50,etc., and other statistical data. The software used was developed by Reddy et al., 1992.
Methodology for Antifeedant activity: Tobacco caterpillar, Spodoptera litura F., larvae will be reared on Ricinus cummunis L. leaves at 27°C and 65-70% R.H. Known area (cm^2) of leaf disks were painted with exact amount of pure compound (dissolved in acetone) and were dried at room temperature till the carrier solvent evaporated. For each concentration 5 to 6 replicates were prepared and experiments were conducted individually. Control disks were dipped in carrier solvent (acetone) alone. Third instar larvae weighing 200-250 mg are selected from stock culture, starved for 4 hr, and will be used individually for the assay of antifeedant activity. After 12 and 24 hours, leaf area meter was used to measure the consumed area of treated and untreated leaves. Based on the data the percent protection of individual compound was calculated. All these properties were compared with well-known antifeedant isolated from neem kemal 'Azadiractin'. Control and test larvae arc transferred on fresh leaves and'monitored till adult emergence to study the growth and behavioral aspects of the insect.

[2] = tested on: Helicoverpa armigera (Hubner); experiment: Growth regulatory (IGR) activity, topical application
[3] = tested on: Brine shrimp, Artemia salina; experiment: Brine shrimp bioassay (toxic activity); conditions: read-out: LC50 ± S.E.
Description: Brine shrimp (Artemiasalina) eggs were hatched in a shallow rectangular dish filled with artificial seawater, which was prepared with commercial salt mixture and double distilled water. A plastic divider with several 2-mm holes was clamped in the dish to make two unequal compartments. The eggs were sprinkled into the larger compartment that was darkened, while the smaller compartment was illuminated. After 48 hours the phototropic nauplii were collected by pipette from the lighted side, being separated by the divider from their shells.
Twenty shrimps were transferred to each sample vial and artificial seawater was added to make 5 ml. The nauplii can becounted macroscopically in the stem of the pipette against a lighted back ground. A drop of dry yeast suspension (3µg in5ml artificial seawater) was added as food to each vial (Meyer, et al., 1982). Survivors were counted with the aid of a 3 x magnifying glass, after 24 hours, and the percent mortality at each concentration and control was determined. The 24 hour counts were more useful. During control deaths, the data was corrected using Abbot's formula.
as §1

[4] = tested on: IV instar larvae of Aedes aegypti; experiment: Larvicidal activity against mosquito larvae (WHO procedure, 24 hours exposure); conditions: read-out: LC50 ± S.E.
Description: To determine the efficacy of different analogues of Alkylxanthates against mosquito larvae, standard procedures as recommended by World Health Organization (1981) were followed with minor modifications. The desired concentration of the test solution was obtained by adding 1 ml of an appropriate stock solution to 249 ml of tap water in 500 ml beaker. Test solutions of different concentrations were prepared by diluting the stock solution in dechlorinated and filtered tap water followed by thorough mixing. Tween -80 [Poly (oxyethylene)n - sorbitan monooleate] was used as an emulsifier at the concentration of 0.002% (v/v) to the final test solution whenever required. Control solutions were prepared in tapwater using acetone or ethanol and Tween -80 (0.002%). To each of the -test concentrations, 25 late third or early fourth instar larvae which were acclimatized earlier were added. At least three replicates of each of the tests were made. Based on the results, five to ten suitable concentrations, which produced 10 to 100% mortality, were selected for detailed study and for calculating LC50 values. Mortality was observed 24 hours after exposing the larvaeto test solutions and the data was corrected for control mortality if any, by using Abbot's formula (Abbot 1925). All tests were carried out at a room temperature maintained at 28 ± 1°C.
as §1

[5] = IV instar larvae, mortality after 24 hours

Compound: C/C=C(\C)C(=O)O[C@H]1C[C@@H](OC(C)=O)[C@@]2(C(=O)OC)CO[C@H]3[C@@H](O)[C@@](C)([C@]45O[C@@]4(C)[C@H]4C[C@@H]5O[C@@H]5OC=C[C@@]54O)[C@H]4[C@]1(CO[C@]4(O)C(=O)OC)[C@@H]32 [Azadiractin, reference compound]
- A.I (Anti-feedent index) ([1]; 5.0 µg/sq.cm.): 24.84
- Percent leaf consumption 12 hr ([1]; 5.0 µg/sq.cm.): 33.7%
- Percent leaf consumption 24 hr ([1]; 5.0 µg/sq.cm.): 57.2%
- A.I (Anti-feedent index) ([1]; 10 µg/sq.cm.): 48.09
- Percent leaf consumption 12 hr ([1]; 10 µg/sq.cm.): 18.6%
- Percent leaf consumption 24 hr ([1]; 10 µg/sq.cm.): 33.3%
- A.I (Anti-feedent index) ([1]; 15 µg/sq.cm.): 54.98
- Percent leaf consumption 12 hr ([1]; 15 µg/sq.cm.): 16.4%
- Percent leaf consumption 24 hr ([1]; 15 µg/sq.cm.): 27.6%
- A.I (Anti-feedent index) ([1]; 20 µg/sq.cm.): 76.42
- Percent leaf consumption 12 hr ([1]; 20 µg/sq.cm.): 4.2%
- Percent leaf consumption 24 hr ([1]; 20 µg/sq.cm.): 12.7%
- Concentration required for 50% leaf protection EC50 ±S.E [1]: 6.34±.77 µg/cm^2
- IGR activity, mode of action [2]: less larvicidal activity, minimized in the formation of normal pupae and emergence of normal adults

Compound: CC[C@@]1(O)C(=O)OCc2c1cc1n(c2=O)Cc2cc3ccccc3nc2-1 [Chamtothecin, reference compound]
- LC50 ([3]; 24 h): 2.53 ± 0.43 µg/mL (≈ 7.26 µM)

Compound: S=C(OCC1CCCO1)SCSC(=S)OCC1CCCO1 (stereo not shown) [Compound 1, Methylene Bis(tetrahydrofurfurylxanthate)]
- LC50 ([4]; iv, 24 h): 3.77 ± 0.59 µg/mL (≈ 10.2 µM)
- LC50 ([3]; mortality after 24 hours): 5.63 ± 0.62 µg/mL (≈ 15.3 µM)
- A.I (Anti-feedent index) ([1]; 12.5 µg/sq.cm.): 8.20
- Percent leaf consumption 12 hr ([1]; 12.5 µg/sq.cm.): 48.6%
- Percent leaf consumption 24 hr ([1]; 12.5 µg/sq.cm.): 80.6%
- A.I (Anti-feedent index) ([1]; 25 µg/sq.cm.): 22.42
- Percent leaf consumption 12 hr ([1]; 25 µg/sq.cm.): 31.5%
- Percent leaf consumption 24 hr ([1]; 25 µg/sq.cm.): 60.2%
- A.I (Anti-feedent index) ([1]; 35 µg/sq.cm.): 33.52
- Percent leaf consumption 12 hr ([1]; 35 µg/sq.cm.): 25.9%
- Percent leaf consumption 24 hr ([1]; 35 µg/sq.cm.): 47.3%
- A.I (Anti-feedent index) ([1]; 50 µg/sq.cm.): 35.23
- Percent leaf consumption 12 hr ([1]; 50 µg/sq.cm.): 22.1%
- Percent leaf consumption 24 hr ([1]; 50 µg/sq.cm.): 45.5%
- Concentration required for 50% leaf protection EC50 ±S.E [1]: 37.21±9.67 µg/cm^2

Compound: CCCCOC(=S)SCc1cccc(F)c1 [Compound 2, m-Fluorobenzyl (n-butylxanthate)]
- LC50 ([4]; iv, 24 h): 12.5 ± 1.24 µg/mL (≈ 48.5 µM)
- LC50 ([3]; mortality after 24 hours): 19 ± 2.83 µg/mL (≈ 73.5 µM)

Compound: CC(C)COC(=S)SCc1cccc(F)c1 [Compound 3, m-Fluorobenzyl (isobutylxanthate)]
- LC50 ([4]; iv, 24 h): 11.8 ± 2.35 µg/mL (≈ 45.6 µM)
- LC50 ([3]; mortality after 24 hours): 22.5 ± 3.26 µg/mL (≈ 87.2 µM)
- A.I (Anti-feedent index) ([1]; 10 µg/sq.cm.): 11.63
- Percent leaf consumption 12 hr ([1]; 10 µg/sq.cm.): 50.4%
- Percent leaf consumption 24 hr ([1]; 10 µg/sq.cm.): 75.2%
- A.I (Anti-feedent index) ([1]; 15 µg/sq.cm.): 16.07
- Percent leaf consumption 12 hr ([1]; 15 µg/sq.cm.): 33.24%
- Percent leaf consumption 24 hr ([1]; 15 µg/sq.cm.): 68.7%
- A.I (Anti-feedent index) ([1]; 20 µg/sq.cm.): 27.86
- Percent leaf consumption 12 hr ([1]; 20 µg/sq.cm.): 24.7%
- Percent leaf consumption 24 hr ([1]; 20 µg/sq.cm.): 53.6%
- A.I (Anti-feedent index) ([1]; 25 µg/sq.cm.): 48.67
- Percent leaf consumption 12 hr ([1]; 25 µg/sq.cm.): 12.5%
- Percent leaf consumption 24 hr ([1]; 25 µg/sq.cm.): 32.8%
- Concentration required for 50% leaf protection EC50 ±S.E [1]: 19.65±2.99 µg/cm^2

Compound: CC(C)COC(=S)SCCSC(=S)OCC(C)C [Compound 4, Ethylene Bis (isobutylxanthate)]
- LC50 [4, 5]: 8.06 ± 0.22 µg/mL (≈ 24.7 µM)
- LC50 ([3]; mortality after 24 hours): 25.8 ± 2.9 µg/mL (≈ 78.9 µM)

Compound: CCCCOC(=S)SCSC(=S)OCCCC [Compound 5, Methylene Bis (n-butytxanthate)]
- LC50 [4, 5]: 5.33 ± 0.97 µg/mL (≈ 17.1 µM)
- LC50 ([3]; mortality after 24 hours): 34.6 ± 3.91 µg/mL (≈ 111 µM)
- A.I (Anti-feedent index) ([1]; 10 µg/sq.cm.): 5.50
- Percent leaf consumption 12 hr ([1]; 10 µg/sq.cm.): 48.5%
- Percent leaf consumption 24 hr ([1]; 10 µg/sq.cm.): 85.1%
- A.I (Anti-feedent index) ([1]; 15 µg/sq.cm.): 22.27
- Percent leaf consumption 12 hr ([1]; 15 µg/sq.cm.): 35.2%
- Percent leaf consumption 24 hr ([1]; 15 µg/sq.cm.): 60.4%
- A.I (Anti-feedent index) ([1]; 20 µg/sq.cm.): 35.14
- Percent leaf consumption 12 hr ([1]; 20 µg/sq.cm.): 22.5%
- Percent leaf consumption 24 hr ([1]; 20 µg/sq.cm.): 45.6%
- A.I (Anti-feedent index) ([1]; 25 µg/sq.cm.): 64.22
- Percent leaf consumption 12 hr ([1]; 25 µg/sq.cm.): 3.5%
- Percent leaf consumption 24 hr ([1]; 25 µg/sq.cm.): 20.7%
- A.I (Anti-feedent index) ([1]; 30 µg/sq.cm.): 85.37
- Percent leaf consumption 12 hr ([1]; 30 µg/sq.cm.): -0- %
- Percent leaf consumption 24 hr ([1]; 30 µg/sq.cm.): 7.5%
- Concentration required for 50% leaf protection EC50 ±S.E [1]: 17.11±1.36 µg/cm^2

Compound: CCCCOC(=S)SCc1ccc(CSC(=S)OCCCC)cc1 [Compound 12, p-Xylene Bis (n-butylcanthate)]
- LC50 [4, 5]: 7.35 ± 0.51 µg/mL (≈ 18.3 µM)
- LC50 ([3]; mortality after 24 hours): 45.2 ± 5.63 µg/mL (≈ 112 µM)
- A.I (Anti-feedent index) ([1]; 10 µg/sq.cm.): 2.59
- Percent leaf consumption 12 hr ([1]; 10 µg/sq.cm.): 57.3%
- Percent leaf consumption 24 hr ([1]; 10 µg/sq.cm.): 90.2%
- A.I (Anti-feedent index) ([1]; 15 µg/sq.cm.): 5.97
- Percent leaf consumption 12 hr ([1]; 15 µg/sq.cm.): 62.4%
- Percent leaf consumption 24 hr ([1]; 15 µg/sq.cm.): 84.3%
- A.I (Anti-feedent index) ([1]; 20 µg/sq.cm.): 24.51
- Percent leaf consumption 12 hr ([1]; 20 µg/sq.cm.): 35.2%
- Percent leaf consumption 24 hr ([1]; 20 µg/sq.cm.): 57.6%
- A.I (Anti-feedent index) ([1]; 25 µg/sq.cm.): 58.86
- Percent leaf consumption 12 hr ([1]; 25 µg/sq.cm.): 20.5%
- Percent leaf consumption 24 hr ([1]; 25 µg/sq.cm.): 24.6%
- Concentration required for 50% leaf protection EC50 ±S.E [1]: 20.45±1.76 µg/cm^2

Reference: EP1373238B1, “ALKYLXANTHATES AND THEIR USE AS PESTICIDES” (priority 2001, dated 2002)
